From a melting point compilation (Tetko et al.)

SMILES | melting point [°C]
Nc1nc2cc3c(cc2s1)OC(F)(F)O3 | 191 to 193
Cc1c[nH]c(=O)n1-c1ccccc1N | 194 to 196
CCOC(=O)Cn1[nH]cc(C#N)c1=N | 121 to 123
CN(C=O)c1ccc(C(=O)CCl)cc1 | 96 to 98
COC(=O)c1cn(C)c(-c2ccc(N)cc2)c1C(=O)OC | 181 to 183
N#Cc1ccc(Oc2ccc(C(=O)O)cc2)nc1 | 246 to 248
CC1(c2ccccc2)NC(=O)N(CC(=O)O)C1=O (configuration not stated) | 170 to 172
O=C(O)c1cc2ccccc2cc1NS(=O)(=O)c1ccc(F)cc1 | 203 to 205
OCc1nnc(-c2ccccc2)n1-c1ccccc1 | 199 to 201
CC(C)(C(=O)O)C(O)c1cccc(O)c1 (configuration not stated) | 163 to 165
Cc1csc(=O)n1CC(=O)O | 193 to 195
O=C1CCc2cc(Cl)c(S(=O)(=O)Cl)cc2N1 | 207 to 209
CC(C)(C)Sc1ccc(C#N)nc1 | 60 to 62
CNC(C)c1ccc(S(N)(=O)=O)cc1 (configuration not stated) | 145 to 147
CNc1cc(Cl)nc(C)n1 | 143 to 145
COc1ccccc1-c1cnc(CCl)o1 | 86 to 88
O=S(=O)(c1ccc2c(c1)CCCN2)N1CCCC1 | 130 to 132
CCOC(=O)C1=C(CCl)NC(=O)NC1c1ccc(OC)cc1 (configuration not stated) | 169 to 171
Cc1cc2nc(Cl)cc(=O)n2o1 | 203 to 204
O=C(O)c1c(C(F)(F)F)n[nH]c1C(F)(F)F | 255 to 257
CC(NC(=O)CC1CCCCC1)C(=O)O (configuration not stated) | 156 to 158
O=Cc1ccc(Oc2ccc(Cl)cc2[N+](=O)[O-])cc1 | 69 to 71
Cn1ccnc1Sc1ccc(N)cc1 | 117 to 119
COc1cccc(-n2c(C)cc(C(=O)O)c2C)c1 | 142 to 144

SMILES | melting point [°C]
O=C(O)C1CCN(S(=O)(=O)c2cccnc2)CC1 | 237 to 239
Cc1ccc([N+](=O)[O-])c(OCCC(=O)O)c1 | 134 to 136
CCc1nc2ccccc2n1CC(=O)NN | 211 to 213
CCCCCCOc1ccc(CC(=O)O)cc1 | 79 to 81
COc1ccc2c(O)ccnc2c1 | 213 to 215
Cc1oc(C)c(C(=O)O)c1C | 131 to 133
Cc1ccc([N+](=O)[O-])cc1S(=O)(=O)Nc1ccccc1C(=O)O | 290 to 292
COC(=O)c1c(C)cccc1S(=O)(=O)Cl | 53 to 55
CN(CC(=O)O)C1CCCC1O (configuration not stated) | 150 to 152
CCC1(C)CCNC(=O)CC1 (configuration not stated) | 76 to 78
Cc1cc(C(F)(F)F)nc(O)n1 | 185 to 187
Cc1n[nH]c(C)c1S(=O)(=O)N1CCN(C)CC1 | 187 to 189
O=S1(=O)Cc2ccc(Cl)cc2N1 | 149 to 151
N#Cc1ccc(-c2ccncc2)[nH]c1=O | 339 to 341
CN1CCN(c2ccc(C(=O)O)cc2[N+](=O)[O-])CC1 | 160 to 162
COC(=O)C1CSCCC1=O (configuration not stated) | 67 to 69
N#Cc1ccc(N2CCOCC2)nc1 | 123 to 125
O=C(CCl)N1CCN(S(=O)(=O)c2ccc3c(c2)CCC3)CC1 | 120 to 122
COc1ccc(Sc2ccc(N)cc2Cl)cc1 | 104 to 106
NC(=NO)c1cccc(CN2CCOCC2)c1 | 155 to 157
CCCOc1ccc(CNC(=O)CCl)cc1 | 109 to 111
Clc1nc(-c2ccccc2)cs1 | 55 to 57
COc1ccc(S(=O)(=O)CC(C)C(=O)O)cc1 (configuration not stated) | 116 to 118
NC(=O)c1[nH]cnc1N | 249 to 251

SMILES | melting point [°C]
CSc1ccc(C#N)cc1N | 42 to 44
N#Cc1ccc(-c2csc(N)n2)cc1 | 267 to 269
CC(=O)c1ccc(S(=O)(=O)C(F)F)cc1 | 92 to 94
CCC1(C(=O)O)CCN(C(=O)OC(C)(C)C)C1 (configuration not stated) | 94 to 96
CCNC(=O)C1CCCNC1 (configuration not stated) | 60 to 62
CC(C)(C(=O)O)c1ccc(Br)cc1 | 123 to 125
Clc1ccc(-n2cccn2)c(Cl)c1 | 34 to 36
NC(=O)C(Cl)c1ccc(F)cc1 (configuration not stated) | 93 to 95
COC(=O)c1n[nH]c(=O)c2ccccc12 | 127 to 129
Cc1ccc2nc(NCc3ccccc3)sc2c1 | 175 to 177
CC(C)CC(=O)NCCc1ccc(S(N)(=O)=O)s1 | 113 to 115
O=C(O)CCN1C(=O)NC2(CCCCC2)C1=O | 100 to 102
NC(=S)Nc1ccc(Cl)nc1 | 182 to 184
CC1CC(=O)NC(=O)C1 | 144 to 146
NCC1CCN(C(=O)c2ccccc2)CC1 | 70 to 72
Fc1cc(F)c2cccnc2c1 | 76 to 78
O=C(CCl)Nc1nc2c(s1)CCCC2 | 144 to 146
Cc1cc(C(=O)CCl)c(C)n1-c1ccc(C(C)(C)C)cc1 | 102 to 104
NC(=O)c1ccnc(F)c1 | 175 to 177
O=[N+]([O-])c1ccc(O)c(-n2cnnn2)c1 | 199 to 201
OC(CC1CCCN1)c1cccs1 (configuration not stated) | 63 to 65
O=C(O)c1c(Cl)nc2sccn12 | 181 to 183
CC(=O)N(c1ccc(Cl)cc1)c1nc(C=O)cs1 | 210 to 212
NC(=O)Nc1cccc(N)c1 | 125 to 127

SMILES | melting point [°C]
Nc1ccc(S(=O)(=O)C2CCCC2)cc1 | 113 to 115
N#CCc1ccc(OCc2ccc(Cl)nc2)cc1 | 99 to 101
Cn1ccnc1C(=O)c1ccc(N)cc1 | 70 to 72
Cc1c(C(=O)O)oc2c1C(=O)CC(C)(C)C2 | 199 to 201
Cc1c(C(=O)O)sc2ccc(F)cc12 | 289 to 291
O=c1c2cc(Cl)ccc2nc2n1CCC2 | 180 to 182
CN(C)c1ccc(C=O)cc1[N+](=O)[O-] | 104 to 106
COc1ccc(CCNc2nnc(S)s2)cc1OC | 189 to 191
CC(=O)NCCNC(=O)c1ccccc1N | 128 to 130
Nc1ccc(S(=O)(=O)N2CCC(Cc3ccccc3)CC2)cc1 | 153 to 155
CCOC(=O)c1nc(-c2cccs2)oc1N | 164 to 166
CCCCNC(=O)Nc1cccc2c1CCCN2 | 173 to 175
Nc1ccc(N2CCOCC2)cc1C(=O)O | 235 to 237
Cc1nn(-c2ccccc2)c(C)c1NC(=O)CCl | 149 to 151
Cc1ccc(S(=O)(=O)CC(=O)CBr)cc1 | 133 to 135
FC(F)c1nc(Cl)c2ccccc2n1 | 85 to 87
Cc1csc(SCc2ccccc2C(=O)O)n1 | 159 to 162
Cc1cc(C)n2nc(CCCO)nc2n1 | 89 to 91
O=C(O)C1CC(c2ccc(Cl)cc2Cl)=NO1 (configuration not stated) | 115 to 117
N#Cc1ccnc(S)c1 | 227 to 229
CCc1ccc(Nc2nnc(SCC(=O)O)s2)cc1 | 250 to 252
O=C(Nc1cnccn1)C1CCNCC1 | 131 to 133
CCOC(=O)c1c(CCCO)cnc2cc(C)nn12 | 76 to 78
Nc1ccccc1C(=O)NC1CCCC1 | 174 to 176

SMILES | melting point [°C]
O=C(O)c1cc(-c2cccc(Br)c2)nc2ccccc12 | 215 to 217
CCCc1c(C(=O)O)[nH]c(C)c1C(C)=O | 214 to 216
Nc1cc(F)ccc1N1CC(C(F)(F)F)OC1=O (configuration not stated) | 119 to 121
O=C(O)CC1SC(=NN=Cc2ccc(Br)s2)NC1=O (configuration not stated) | 278 to 280
NCc1ccc(Cn2cnc3ccccc32)cc1 | 72 to 74
COc1ccc(Cl)c(S(=O)(=O)Cl)c1 | 41 to 43
CCN(CC)S(=O)(=O)c1ccc(N2CCOCC2)c(C(=O)O)c1 | 149 to 151
COc1cccc(Nc2nnc(SCC(=O)O)s2)c1 | 135 to 137
O=C(O)c1cc2cc(Br)cc(Br)c2o1 | 279 to 281
CC(Oc1ccc(O)cc1)C(N)=O (configuration not stated) | 138 to 140
O=C(O)c1cn(-c2ccccc2)nc1-c1ccccc1 | 202 to 204
Clc1ccc(Br)cc1CBr | 71 to 73
Cc1ccc(NC(N)=O)cc1C | 170 to 172
CC(C)C(C(=O)O)N1CCN(C)CC1 (configuration not stated) | 195 to 197
O=C(O)C=Cc1ccc(S(=O)(=O)N2CCc3ccccc32)cc1 | 199 to 201
Cc1n[nH]c(C)c1CCC(=O)O | 169 to 171
O=C(O)c1ccc(N2CCc3ccccc3C2)cc1 | 209 to 211
CCCc1[nH]ncc1C(=O)O | 207 to 209
O=C(c1ccccc1)c1c(Cl)cccc1Cl | 82 to 84
CC(C)(C)OC(=O)Nc1csc(Br)c1 | 84 to 86
N#Cc1ccccc1OCc1cccc(C(=O)O)c1 | 153 to 155
CC(=O)Nc1ccc(NS(C)(=O)=O)c(C(=O)O)c1 | 265 to 267
NCC(O)COc1ccc(I)cc1 (configuration not stated) | 129 to 131
CC(C)c1nnc(N)o1 | 184 to 186

SMILES | melting point [°C]
CCOC(=O)c1cccnc1SCC(=O)O | 109 to 111
Cc1cc(C(=O)CCl)c(C)n1-c1ccc(Cl)c(C(F)(F)F)c1 | 139 to 141
CCC(C)(CNC(=O)OC(C)(C)C)C(=O)O (configuration not stated) | 113 to 115
Cc1cccc(NC(=O)C2CCNCC2)n1 | 175 to 177
Cc1nc(-c2cccc(NC(=O)CCl)c2)cs1 | 45 to 47
O=C(O)c1cnn(-c2ccc(Cl)cc2)c1 | 237 to 239
NS(=O)(=O)c1cccc2c1N=S=N2 | 128 to 130
O=C(O)C1CCCSC1 (configuration not stated) | 76 to 78
COC(=O)c1ccc(Cl)cc1S(=O)(=O)Cl | 63 to 65
COc1ccccc1-c1nnc(N)[nH]1 | 214 to 216
O=C(CCl)NC(=O)NCC(F)(F)F | 154 to 156
CCN1N=C(c2ccccc2)CC1=O | 140 to 142
N#CCc1ccc(OCC(=O)O)cc1 | 148 to 150
Nc1nncc(-c2ccc(F)cc2)n1 | 248 to 250
COc1nc(Cl)ncc1Br | 76 to 78
N#CCc1ccc(NC(=O)CCl)cc1 | 122 to 124
Cc1nnc2n1CC(C(=O)O)CC2 (configuration not stated) | 249 to 251
O=C(Nc1ccccc1)c1cccc(CCl)c1 | 123 to 125
CCOC(=O)c1[nH]ncc1C=O | 168 to 170
O=C(O)CC(Cc1ccccc1)Cc1ccccc1 | 82 to 84
CS(=O)(=O)Nc1nc2ccc(N)cc2s1 | 281 to 283
CCc1nc(N)sc1C | 73 to 75
